Read-outs that look alike come from different tables or passages of the source.
Columns and labels:
[1] = test system: cells from the kidney or peripheral blood; assay: In vivo apoptosis in non-target tissues, APO-TRACE and flow cytometry; set-up: species or system mice; settings: 2 mg injected, 48 hrs
Text: FIG. 15 illustrates that apoptosis induced by treatment with cytotoxic WAT7-KLAKLAK2 (SEQ ID NO:13-SEQ ID NO:31) all-D-peptide was limited to target tissue. APO-TRACE reagent (Sigma) and flow cytometry were used to detect apoptosis induction in both subcutaneous and intraperitoneal WAT cells, but not in cells from the kidney or peripheral blood.
(§1) In some embodiments targeting peptides selective for angiogenic vasculature in adipose tissue could be used to treat obesity associated disorders, for example for weight reduction or for preventing weight gain. […] Because brown adipose tissue more vascularized, a vasculature based targeting approach would be very effective for delivery of therapeutic reagents to BAT for activation of this tissue.
(§2) This reduction was due to the targeted depletion of ASC through apoptotic cell death as evidenced at 48 hrs after injection (see FIG. 14).

[2] = Maximal tolerable dose (MTD) with increasing peptide doses; type: in vivo, mice
Text: as §1
When the therapeutic treatment of adipose associated body composition or body weight disorders such as obesity, lypodystrophy, diabetes or metabolic syndrome, fibrosis and cancer is contemplated, the appropriate dosage may also be determined using animal studies to determine the maximal tolerable dose, or MTD, of a bioactive agent per kilogram weight of the test subject. In general, at least one animal species tested is mammalian. Those skilled in the art regularly extrapolate doses for efficacy and avoiding toxicity to other species, including human. Before human studies of efficacy are undertaken, Phase I clinical studies help establish safe doses.
as §2

[3] = test system: CD34+CD31−CD45− cells (MSC) from WAT; assay: Synchronous in vivo phage display biopanning, clones recovered from WAT MSC (ASC); set-up: species or system mouse; settings: percent of sequenced phage clones carrying the insert in WAT after 4 rounds of synchronous in vivo biopanning on CD34+CD31−CD45− cells
Text: (§3) Phage Library Screening: Random peptide libraries based on the M13-derived bacteriophage vector fUSE5 displaying inserts CX7C, CX8C, and CX9C on the pIII protein were admixed (1:1:1) to the combined 10^10 TU of mixed library for the screen performed based on the synchronous biopanning in vivo upon tail vein injection (see for example, US20050074747 and Arap, et al., Nat. Med. 8:121-127, 2002; Kolonin, et al., FASEB J. 20: 979-981, 2006).
(§4) For competitive homing experiment, 5×10^9 TU for each of the 11 chosen phage clones were admixed and the combined 5.5×10^10 TU was injected. For validation of individual clones, 1×10^10 TU for each phage clones was injected. After 1 hr of circulation and heart perfusion with 10 ml of phosphate buffer saline (PBS), WAT, tibia/femurs, bone-associated skeletal muscle, and lungs were collected. Bone marrow was isolated by flushing tibia/femurs. Hematopoietic and endothelial cells were depleted from cell suspensions of each organ by Dynabeads (Invitrogen) coated with anti-TER119, anti-CD31, and anti-CD45 antibodies (BD Biosciences), after which the remaining cells were processed by FACS to purify CD34+CD31−CD45− cells. Bound phage were recovered by infecting K91 E. coli, quantified by phage transforming unit (TU) counting, and processed for sequencing of the peptide-coding DNA as described in Arap, et al. 2002, ibid and Kolonin, et al., 2006, ibid. For identification of conserved peptide motifs, ClustalW2 software was used.
(§5) Methods for isolation of MSC by fluorescence-activated cell sorting (FACS) from organ cell suspensions based on the C34+CD31−CD45− immunophenotype (FIG. 8B) were combined with phage display and optimized for ASC. By adapting the previously described “synchronous in vivo biopanning” method of (Kolonin et al., 2006, ibid), a mixture of cyclic CX7C, CX8C, and CX9C (C: disulfide-bonded cysteines; X: any amino acid) random peptide libraries was screened (FIG. 1A). This approach made it possible to select MSC probes from the pool of over 10^11 combinatorial peptides. Throughout the screen, progressive enrichment in the number of phage particles recovered on MSC from WAT, as well as from the chosen control organs: lung, bone marrow, and skeletal muscle (FIG. 1B) was observed.
(§6) After 4 rounds of synchronous in vivo biopanning, eight CX7C and CX8C sequences repeatedly recovered from ASC with frequency above 1% were identified, which were termed WAT1 through WAT8 (see Table 1 below). In parallel, a matched number of peptide inserts homing to lung stromal cells (LSC) were sequenced as a control. None of the WAT-homing peptides were enriched in the lung. Four sequences repeatedly recovered in the lung with frequency above 1%, were termed LU1 through LU4 (see Table 1 below). […] Because the focus of this study is WAT-specific MSC, this clone was excluded from further analysis. Other selected peptides were subjected to an in vivo competition assay in order to identify those with the highest specificity of binding. Equal amounts of phage for the 11 clones displaying peptides WAT1 through WAT7 (SEQ ID NOS: 1-14) and LU1 through LU4 (SEQ ID NOS: 17-24) were admixed and injected into a mouse. Homing specificity of each clone was assessed by quantifying frequency of phage coding for each peptide selected on C34+CD31−CD45− cells isolated from either WAT or lung.
(§7) Shown in Table 1 above are the percent (%) of the sequenced phage clones that carried the indicated WAT or LU insert present within WAT (% in WAT) or lung (% in LUNG) following 4 rounds of synchronous in vivo biopanning on CD34+CD31−CD45− cells.

[4] = test system: CD34+CD31−CD45− cells (MSC) from lung; assay: Synchronous in vivo phage display biopanning, clones recovered from lung MSC (LSC); set-up: species or system mouse; settings: percent of sequenced phage clones carrying the insert in lung after 4 rounds of synchronous in vivo biopanning on CD34+CD31−CD45− cells
Text: as §3, §4, §5, §6, §7

[5] = test system: C34+CD31−CD45− cells isolated from WAT; assay: In vivo competition (re-homing) assay of 11 admixed phage clones, WAT; set-up: species or system mouse; settings: equal amounts of 11 phage clones mixed and injected; percent of sequenced clones on C34+CD31−CD45− cells from WAT
Protocol: as §4, §6

[6] = test system: C34+CD31−CD45− cells isolated from lung; assay: In vivo competition (re-homing) assay of 11 admixed phage clones, lung; set-up: species or system mouse; settings: equal amounts of 11 phage clones mixed and injected; percent of sequenced clones on C34+CD31−CD45− cells from lung
Protocol: as §4, §6

[7] = target: T1, recombinant bacterially-purified full-length core mouse DCN (mDCN) (Mus musculus, UniProt P28654); assay: ELISA binding assay, recombinant full-length core mouse DCN; settings: His6-tagged protein coated at 10 μg/ml
T1 construct: cloning fragments encoding amino acids 1-354 and 45-354 of mouse DCN cDNA (OriGene); His6; made in house
T1 sequence (P28654 17-354): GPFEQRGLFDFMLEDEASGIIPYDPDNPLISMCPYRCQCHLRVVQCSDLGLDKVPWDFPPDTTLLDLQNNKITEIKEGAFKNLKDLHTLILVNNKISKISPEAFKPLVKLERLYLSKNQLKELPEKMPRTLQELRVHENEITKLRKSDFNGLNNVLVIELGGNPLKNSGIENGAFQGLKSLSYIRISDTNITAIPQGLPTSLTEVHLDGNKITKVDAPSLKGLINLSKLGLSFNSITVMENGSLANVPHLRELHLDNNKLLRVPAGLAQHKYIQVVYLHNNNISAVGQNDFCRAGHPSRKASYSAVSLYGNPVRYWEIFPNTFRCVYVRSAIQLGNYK
Text: (§8) Immunoblotting and Binding Assays: Protein preparations resolved on SDS-PAGE were blotted onto Immobilon-FL membrane (Millipore), blocked with Odyssey blocking buffer (Licor Biosciences), and probed (in PBS/0.05% Triton X-100) with goat anti-DCN (R&D Systems, 1:1,000), rabbit anti-ANX2A (Aviva, 1:1,000), rabbit anti-mouse b-actin (Abcam, 1:10,000) antibodies, or pre- and post-immune antisera against WAT7 (1:1,000) as indicated. Signal was detected by Odyssey imaging system using anti-goat IRDye 800CW or anti-rabbit IRDye 680 both from Licor Biosciences. Bovine DCN was from Sigma-Aldrich, NS0-derived murine DCN was from R&D Systems. Murine DCN cDNA was generated from WAT total RNA using SuperScript kit (Invitrogen). For bacterial expression, full-length mouse core DCN and ΔDCN isoforms were produced by cloning fragments encoding amino acids 1-354 and 45-354 of mouse DCN cDNA (OriGene) or of CLIC4 cDNA (OriGene) in-frame with the His6Tag into pET28a vector, respectively. His6-tagged proteins were purified with His-Tag kit (Novagen). […] Bound peptides or FLAG-resistin were probed with corresponding rabbit anti-peptide Genemed antibodies (1:2,000) or rabbit anti-FLAG antibodies (Sigma-Aldrich, 1:2,000) followed by secondary goat anti-rabbit HRP-conjugated antibodies (Millipore, 1:5,000) and signal detection with Ultra-TMB (Pierce) substrate and measurement of absorbance at 450 nm. […]

[8] = target: T2, recombinant bacterially-purified mouse ΔDCN (Mus musculus, UniProt P28654); assay: ELISA binding assay, ΔDCN; settings: His6-tagged protein coated at 10 μg/ml
T2 construct: cloning fragments encoding amino acids 1-354 and 45-354 of mouse DCN cDNA (OriGene); His6; made in house
T2 sequence (P28654 45-354): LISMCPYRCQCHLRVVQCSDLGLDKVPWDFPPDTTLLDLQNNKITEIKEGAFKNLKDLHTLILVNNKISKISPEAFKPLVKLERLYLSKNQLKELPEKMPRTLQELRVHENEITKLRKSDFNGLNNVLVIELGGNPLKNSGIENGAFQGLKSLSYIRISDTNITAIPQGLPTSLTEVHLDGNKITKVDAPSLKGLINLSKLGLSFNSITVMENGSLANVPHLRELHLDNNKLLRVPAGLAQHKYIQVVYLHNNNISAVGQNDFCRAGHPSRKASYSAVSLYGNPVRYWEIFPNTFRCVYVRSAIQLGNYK
Text: as §8

[9] = target: T3, glycosylated bovine DCN (bDCN*) (Bos taurus, UniProt P21793); assay: ELISA binding assay, glycosylated bovine DCN; settings: compared with BSA background
T3 construct: purchased Sigma-Aldrich
Text: as §8

[10] = target: T4, full-length glycosylated mouse DCN (mDCN*) (Mus musculus, UniProt P28654); assay: ELISA binding assay, glycosylated mouse DCN; settings: compared with BSA background
T4 construct: full-length glycosylated mouse DCN (mDCN*); purchased R&D Systems; host or cells: NS0
T4 sequence (P28654 31-354): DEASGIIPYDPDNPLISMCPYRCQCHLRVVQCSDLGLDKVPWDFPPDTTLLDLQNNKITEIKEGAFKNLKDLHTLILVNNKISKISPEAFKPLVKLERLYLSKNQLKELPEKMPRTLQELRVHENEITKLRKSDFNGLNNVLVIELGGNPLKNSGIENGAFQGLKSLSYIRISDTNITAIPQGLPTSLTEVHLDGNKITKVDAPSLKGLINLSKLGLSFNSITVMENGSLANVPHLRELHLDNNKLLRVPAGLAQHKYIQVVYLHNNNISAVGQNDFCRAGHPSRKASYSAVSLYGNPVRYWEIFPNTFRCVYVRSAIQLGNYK
Text: as §8

T3 sequence (P21793 31-360): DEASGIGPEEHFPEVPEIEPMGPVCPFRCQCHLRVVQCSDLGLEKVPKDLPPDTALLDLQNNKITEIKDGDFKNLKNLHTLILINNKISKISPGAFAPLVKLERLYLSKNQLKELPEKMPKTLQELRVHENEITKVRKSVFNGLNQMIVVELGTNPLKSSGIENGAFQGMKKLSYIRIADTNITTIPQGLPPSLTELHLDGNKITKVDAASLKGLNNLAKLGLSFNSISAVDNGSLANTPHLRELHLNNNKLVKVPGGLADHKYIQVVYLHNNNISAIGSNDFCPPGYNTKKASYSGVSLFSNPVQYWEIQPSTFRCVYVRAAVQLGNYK

Q: What does the source list for CC(C)C[C@@H](NC(=O)[C@@H](CCCCN)NC(=O)CCCCCNC(=O)[C@H]1CSSC[C@@H](N)C(=O)N[C@H](CO)C(=O)N[C@H](Cc2c[nH]c3ccccc23)C(=O)N[C@H](CCCCN)C(=O)N[C@H](Cc2ccc(O)cc2)C(=O)N[C@H](Cc2c[nH]c3ccccc23)C(=O)N[C@H](Cc2ccccc2)C(=O)NCC(=O)N[C@H](CCC(=O)O)C(=O)N1)C(=O)N[C@H](C)C(=O)N[C@H](CCCCN)C(=O)N[C@H](CC(C)C)C(=O)N[C@H](C)C(=O)N[C@H](CCCCN)C(=O)N[C@H](CCCCN)C(=O)N[C@H](CC(C)C)C(=O)N[C@H](C)C(=O)N[C@H](CCCCN)C(=O)N[C@H](CC(C)C)C(=O)N[C@H](C)C(=O)N[C@H](CCCCN)C(=O)O [WAT7-KLAKLAK2]?
A: apoptotic cell death in kidney or peripheral blood [1]: no apoptotic cell death was identified; MTD [2]: No MTD was reached; MTD ([2]; mouse, in vivo, read-out: MTD): > 100 mg/kg

Q: What does the source list for “YKNVDSGG [WAT-2, used as control peptide]”?
A: % in WAT [3]: 2.9%; % in LUNG [4]: 0%; Re-home to WAT (%) [5]: 2.1%; Re-home to Lung (%) [6]: 2.9%; binding to recombinant core mouse DCN (OD450) [7]: did not display DCN binding

B1: Resistin: FLAG-tagged mouse resistin produced in HEK293 cells; WAT-secreted adipokine, ligand of ΔDCN (protein)
chain: SSMPLCPIDEAIDKKIKQDFNSLFPNAIKNIGLNCWTVSSRGKLASCPEGTAVLSCSCGSACGSWDIREEKVCHCQCARIDWTAARCCKLQVAS
Q: With B1 as the molecule, how does the “binding to ΔDCN (OD450)” value [8] read?
A: Its value is “dose-dependent”.

Q: What about the “binding to glycosylated bovine DCN (OD450)” value [9] of the same molecule?
A: Its value is “completely inefficient in binding”.

Q: What about the “binding to glycosylated mouse DCN (OD450)” value [10] of the same molecule?
A: Its value is “completely inefficient in binding”.
